One assay concerns the target Factor D (Homo sapiens (Human), UniProt P00746). The assay can be described thus: biochemical. Type of assay: biochemical.
Settings: not given
Chain of Factor D (P00746 26-253): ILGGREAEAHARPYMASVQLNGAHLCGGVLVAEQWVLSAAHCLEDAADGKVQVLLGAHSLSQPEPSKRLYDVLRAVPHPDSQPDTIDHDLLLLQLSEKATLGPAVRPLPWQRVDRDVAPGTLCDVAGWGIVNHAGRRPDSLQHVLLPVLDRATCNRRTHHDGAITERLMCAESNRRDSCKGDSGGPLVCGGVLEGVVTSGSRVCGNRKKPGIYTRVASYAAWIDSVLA
By IC50 is commonly meant the point on the concentration scale where inhibition reaches its midpoint. `[2H]C([2H])([2H])O[C@H]1[C@@H](C(=O)NCc2cccc(Cl)c2F)N(C(=O)Cn2cc(C(C)=O)c3ccccc32)C[C@@H]1F` [Example 620, (2S,3S,4S)-1-[2-(3-Acetyl-indol-1-yl)-acetyl]-4-fluoro-3-methoxy-d3-pyrrolidine-2-carboxylic acid 3-chloro-2-fluoro-benzylamide] registered an IC50 of 17 nM.

Still in this assay, the particulars now being: read-out: IC50.
For the molecule `CNC[C@@]1(F)C[C@@H](C(=O)NCc2cccc(Cl)c2F)N(C(=O)Nc2cn(C(N)=O)c3ccccc23)C1` [Example 424, 2S,4S)-4-Fluoro-4-methylaminomethyl-pyrrolidine-1,2-dicarboxylic acid 1-[(1-carbamoyl-1H-indol-3-yl)-amide]2-(3-chloro-2-fluoro-benzylamide], the concentration for half-maximal inhibition (IC50) worked out at 68 nM. Same read-out and setting: to `CC(=O)c1cn(CC(=O)N2[C@@H]3C[C@@H]3C[C@H]2C(=O)NCc2cccc(Cl)c2F)c2ccc(OCc3ncccn3)cc12` [Example 666, (1R,3S,5R)-2-{2-[3-Acetyl-5-(pyrimidin-2-ylmethoxy)-indol-1-yl]-acetyl}-2-aza-bicyclo [3.1.0]hexane-3-carboxylic acid 3-chloro-2-fluoro-benzylamide] belongs 6 nM; to `COC[C@@H](NC(=O)[C@@H]1C[C@H]2C[C@H]2N1C(=O)Cn1cc(C(C)=O)c2ccncc21)c1cccc(Cl)c1F` [Example 535, (1R,3S,5R)-2-[2-(3-Acetyl-pyrrolo[2,3-c]pyridin-1-yl)-acetyl]-2-aza-bicyclo[3.1.0] hexane-3-carboxylic acid [(S)-1-(3-chloro-2-fluoro-phenyl)-2-methoxy-ethyl]-amide], 62 nM; to `C[C@@]1(F)C[C@@H](C(=O)NCc2cccc(Cl)c2F)N(C(=O)Nc2cn(C(N)=O)c3ccc(OCC(=O)O)cc23)C1` [Example 375, (1-Carbamoyl-3-{[(2S,4R)-2-(3-chloro-2-fluoro-benzylcarbamoyl)-4-fluoro-4-methyl-pyrrolidine-1-carbonyl]-amino}-1H-indol-5-yloxy)-acetic acid], 2 nM. As for `CC(=O)c1cn(CC(=O)N2[C@@H]3C[C@@H]3C[C@H]2C(=O)NCc2cccc(Cl)c2F)c2cc(C(=O)O)ccc12` [Example 598, 3-Acetyl-1-{2-[(1R,3S,5R)-3-(3-chloro-2-fluoro-benzylcarbamoyl)-2-aza-bicyclo[3.1.0]hex-2-yl]-2-oxo-ethyl}-1H-indole-6-carboxylic acid], the IC50 came to 14 nM.

On to `NC(=O)n1cc(NC(=O)N2CCC[C@H]2C(=O)Nc2cccc(OC(F)(F)F)c2)c2ccc(Br)cc21` [Example 286, (S)-Pyrrolidine-1,2-dicarboxylic acid 1-[(6-bromo-1-carbamoyl-1H-indol-3-yl)-amide] 2-[(3-trifluoromethoxy-phenyl)-amide]], for which the IC50 came to 2650 nM. For `COc1ccc(Cl)cc1CNC(=O)[C@@H]1C[C@H](N)CN1C(=O)Nc1cn(C(N)=O)c2ccccc12` [Example 53, (2S,4S)-4-Amino-pyrrolidine-1,2-dicarboxylic acid 1-[(1-carbamoyl-1H-indol-3-yl)-amide] 2-(5-chloro-2-methoxy-benzylamide)], the IC50 was found to be 1750 nM. With `CO[C@H]1[C@@H](C(=O)NCc2cccc(Cl)c2F)N(C(=O)Cn2nc(C(C)=O)c3ccccc32)C[C@@H]1F` [Example 680, (2S,3S,4S)-1-[2-(3-Acetyl-indazol-1-yl)-acetyl]-4-fluoro-3-methoxy-pyrrolidine-2-carboxylic acid 3-chloro-2-fluoro-benzylamide], the IC50 came to 16 nM. On the same count and under the same terms, to `CC(C)c1cccc(NC(=O)[C@@H]2C[C@H]3C[C@H]3N2C(=O)Cn2nc(C(N)=O)c3ccncc32)n1` [Example 673, 1-{2-[(1R,3S,5R)-3-(6-Isopropyl-pyridin-2-ylcarbamoyl)-2-aza-bicyclo [3.1.0]hex-2-yl]-2-oxo-ethyl}-1H-pyrazolo[3,4-c]pyridine-3-carboxylic acid amide] belongs 157 nM. For `CC(=O)c1cn(CC(=O)N2[C@@H]3C[C@@H]3C[C@H]2C(=O)NCc2cccc(Cl)c2F)c2nnccc12` [Example 655, (1R,3S,5R)-2-[2-(5-Acetyl-pyrrolo[2,3-c]pyridazin-7-yl)-acetyl]-2-aza-bicyclo [3.1.0]hexane-3-carboxylic acid 3-chloro-2-fluoro-benzylamide], the IC50 was determined as 91 nM. With `NC(=O)n1cc(NC(=O)N2CCS[C@H]2C(=O)Nc2cccc(OC(F)(F)F)c2)c2ccccc21` [Example 267, (S)-Thiazolidine-2,3-dicarboxylic acid 3-[(1-carbamoyl-1H-indol-3-yl)-amide] 2-[(3-trifluoromethoxy-phenyl)-amide]], the IC50 stood at 83 nM.

On to `NC(=O)n1cc(NC(=O)N2CCC[C@H]2CNc2cccc(OC(F)(F)F)c2)c2ccccc21` [Example 117, 3-({(S)-2-[(3-Trifluoromethoxy-phenylamino)-methyl]-pyrrolidine-1-carbonyl}-amino)-indole-1-carboxylic acid amide], for which the IC50 was found to be 11800 nM. The same measure, in the same setting: in the case of `NC(=O)n1cc(NC(=O)N2C[C@H](F)C[C@H]2C(=O)Nc2ccncc2F)c2ccccc21` [Example 323, (2S,4R)-4-Fluoro-pyrrolidine-1,2-dicarboxylic acid 1-[(1-carbamoyl-1H-indol-3-yl)-amide] 2-[(3-fluoro-pyridin-4-yl)-amide]] it was 902 nM.

Consider `CC(=O)c1cn(CC(=O)N2C[C@H](F)C[C@H]2C(=O)NCc2cccc(Cl)c2F)c2ccccc12` [Example 507, (2S,4R)-1-[2-(3-Acetyl-indol-1-yl)-acetyl]-4-fluoro-pyrrolidine-2-carboxylic acid 3-chloro-2-fluoro-benzylamide], for which the IC50 was found to be 16 nM. Still for that read-out and setting: to `NC(=O)c1cn(CC(=O)N2CCC[C@H]2C(=O)Nc2cccc(OC(F)(F)F)c2)c2ccccc12` [Example 118, 1-{2-oxo-2-[(S)-2-(3-trifluoromethoxy-phenylcarbamoyl)-pyrrolidin-1-yl]-ethyl}-1H-indole-3-carboxylic acid amide] belongs 17500 nM. The same measure, in the same setting: to `N#Cc1cccc(CNC(=O)[C@@H]2C[C@H](N)CN2C(=O)Nc2cn(C(N)=O)c3ccccc23)c1` [Example 33, (2S,4S)-4-Amino-pyrrolidine-1,2-dicarboxylic acid 1-[(1-carbamoyl-1H-indol-3-yl)-amide] 2-(3-cyano-benzylamide)] belongs 24000 nM. Still for that read-out and setting: to `NC(=O)n1cc(NC(=O)N2[C@@H]3C[C@@H]3C[C@H]2C(=O)Nc2cccc(OC(F)(F)F)c2)c2cc(OCCO)ccc21` [Example 381, (1R,3S,5R)-2-Aza-bicyclo[3.1.0]hexane-2,3-dicarboxylic acid 2-{[1-carbamoyl-5-(2-hydroxy-ethoxy)-1H-indol-3-yl]-amide}3-[(3-trifluoromethoxy-phenyl)-amide]] belongs 57 nM; to `CC(=O)n1cc(NC(=O)N2CCC[C@H]2C(=O)Nc2cccc(OC(F)(F)F)c2)c2ccc(C#N)cc21` [Example 367, (S)-Pyrrolidine-1,2-dicarboxylic acid 1-[(1-acetyl-6-cyano-1H-indol-3-yl)-amide]2-[(3-trifluoromethoxy-phenyl)-amide]], 7950 nM; to `CC(=O)c1cn(CC(=O)N2[C@@H]3C[C@@H]3C[C@H]2C(=O)NCc2cccc(Cl)c2F)c2ccc(C(=N)N(C)C)cc12` [Example 615, (1R,3S,5R)-2-{2-[3-Acetyl-5-(N,N-dimethyl-carbamimidoyl)-indol-1-yl]-acetyl}-2-aza-bicyclo[3.1.0]hexane-3-carboxylic acid 3-chloro-2-fluoro-benzylamide], 42 nM. For the molecule `NC(=O)n1cc(NC(=O)N2C[C@H](F)C[C@H]2C(=O)NCc2cccc(Cl)c2F)c2ccc(OC(F)F)cc21` [Example 308, (2S,4R)-4-Fluoro-pyrrolidine-1,2-dicarboxylic acid 1-[(1-carbamoyl-6-difluoromethoxy-1H-indol-3-yl)-amide] 2-(3-chloro-2-fluoro-benzylamide)], the IC50 was determined as 127 nM. Same read-out and setting: to `NC(=O)n1cc(NC(=O)N2N=CCC2C(=O)NCc2cccc(Cl)c2)c2ccccc21` (stereo not shown) [Example 361, 4,5-Dihydro-pyrazole-1,5-dicarboxylic acid 1-[(1-carbamoyl-1H-indol-3-yl)-amide]5-(3-chloro-benzylamide)] belongs 25 nM.

Turning to `NC(=O)n1cc(NC(=O)N2C[C@H](F)C[C@H]2C(=O)N[C@@H](c2cccc(Cl)c2)C(F)(F)F)c2ccccc21` [Example 296, (2S,4R)-4-Fluoro-pyrrolidine-1,2-dicarboxylic acid 1-[(1-carbamoyl-1H-indol-3-yl)-amide] 2-{[(S)-1-(3-chloro-phenyl)-2,2,2-trifluoro-ethyl]-amide}], the IC50 turned out to be 218 nM. Regarding `CC(C)c1cccc(NC(=O)[C@@H]2C[C@H]3C[C@H]3N2C(=O)Nc2cn(C(N)=O)c3ccccc23)c1` [Example 285, (1R,3S,5R)-2-Aza-bicyclo[3.1.0]hexane-2,3-dicarboxylic acid 2-[(1-carbamoyl-1H-indol-3-yl)-amide] 3-[(3-isopropyl-phenyl)-amide]], the IC50 came out at 55 nM. Still for that read-out and setting: to `Cc1cccc(CNC(=O)[C@@H]2C[C@H](N)CN2C(=O)Nc2cn(C(N)=O)c3ccccc23)c1` [Example 30, (2S,4S)-4-Amino-pyrrolidine-1,2-dicarboxylic acid 1-[(1-carbamoyl-1H-indol-3-yl)-amide] 2-(3-methyl-benzylamide)] belongs 2700 nM; to `COC[C@@H](NC(=O)[C@@H]1C[C@H]2C[C@H]2N1C(=O)Nc1cn(C(N)=O)c2ccccc12)c1cccc(Cl)c1F` [Example 236, (1R,3S,5R)-2-Aza-bicyclo[3.1.0]hexane-2,3-dicarboxylic acid 2-[(1-carbamoyl-1H-indol-3-yl)-amide] 3-{[(S)-1-(3-chloro-2-fluoro-phenyl)-2-methoxy-ethyl]-amide}], 8 nM. The same measure, in the same setting: to `NC(=O)n1cc(NC(=O)N2C[C@H](F)C[C@H]2C(=O)NCc2cccc(Cl)c2F)c2ccccc21` [Example 1] belongs 7 nM; to `NC(=O)c1cn(CC(=O)N2C[C@H](F)C[C@H]2C(=O)Nc2cccc(Cl)c2F)c2ccccc12` [Example 486, 1-{2-[(2S,4R)-2-(3-Chloro-2-fluoro-phenylcarbamoyl)-4-fluoro-pyrrolidin-1-yl]-2-oxo-ethyl}-1H-indole-3-carboxylic acid amide], 2450 nM.
